Reference: PubChem BioAssay (NCI)
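Five concentrations, 48 hours, 96-well plates. GI50 is the concentration that inhibits growth by half. TGI marks complete inhibition of growth.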

How the values were obtained:
Experiment in all cases: growth of human tumour cells (NCI), 48 h
786-0 renal = tested on: 786-0 renal
A498 renal = tested on: A498 renal
A549 NSCLC = tested on: A549 NSCLC
ACHN renal = tested on: ACHN renal
BT-549 breast = tested on: BT-549 breast
CAKI-1 renal = tested on: CAKI-1 renal
CCRF-CEM leukemia = tested on: CCRF-CEM leukemia
COLO 205 colon = tested on: COLO 205 colon
DU-145 prostate = tested on: DU-145 prostate
EKVX NSCLC = tested on: EKVX NSCLC
HCC-2998 colon = tested on: HCC-2998 colon
HCT-116 colon = tested on: HCT-116 colon
HCT-15 colon = tested on: HCT-15 colon
HL-60(TB) leukemia = tested on: HL-60(TB) leukemia
HOP-62 NSCLC = tested on: HOP-62 NSCLC
HOP-92 NSCLC = tested on: HOP-92 NSCLC
HS 578T breast = tested on: HS 578T breast
HT29 colon = tested on: HT29 colon
IGROV1 ovarian = tested on: IGROV1 ovarian
K-562 leukemia = tested on: K-562 leukemia
KM12 colon = tested on: KM12 colon
LOX IMVI melanoma = tested on: LOX IMVI melanoma
M14 melanoma = tested on: M14 melanoma
MALME-3M melanoma = tested on: MALME-3M melanoma
MCF7 breast = tested on: MCF7 breast
MDA-MB-231 breast = tested on: MDA-MB-231 breast
MDA-MB-435 = tested on: MDA-MB-435
MOLT-4 leukemia = tested on: MOLT-4 leukemia
NCI-H226 lung = tested on: NCI-H226 lung
NCI-H23 lung = tested on: NCI-H23 lung
NCI-H460 lung = tested on: NCI-H460 lung
NCI-H522 lung = tested on: NCI-H522 lung
NCI/ADR-RES ovarian = tested on: NCI/ADR-RES ovarian
OVCAR-3 ovarian = tested on: OVCAR-3 ovarian
OVCAR-4 ovarian = tested on: OVCAR-4 ovarian
OVCAR-5 ovarian = tested on: OVCAR-5 ovarian
OVCAR-8 ovarian = tested on: OVCAR-8 ovarian
PC-3 prostate = tested on: PC-3 prostate
RPMI-8226 leukemia = tested on: RPMI-8226 leukemia
SF-268 CNS = tested on: SF-268 CNS
SF-295 CNS = tested on: SF-295 CNS
SF-539 CNS = tested on: SF-539 CNS
SK-MEL-2 melanoma = tested on: SK-MEL-2 melanoma
SK-MEL-28 melanoma = tested on: SK-MEL-28 melanoma
SK-MEL-5 melanoma = tested on: SK-MEL-5 melanoma
SK-OV-3 ovarian = tested on: SK-OV-3 ovarian
SN12C renal = tested on: SN12C renal
SNB-19 CNS = tested on: SNB-19 CNS
SNB-75 CNS = tested on: SNB-75 CNS
SR leukemia = tested on: SR leukemia
SW-620 colon = tested on: SW-620 colon
TK-10 renal = tested on: TK-10 renal
U251 CNS = tested on: U251 CNS
UACC-257 melanoma = tested on: UACC-257 melanoma
UACC-62 melanoma = tested on: UACC-62 melanoma
UO-31 renal = tested on: UO-31 renal

`CCN1C(=O)N(CC)C2SC(N/N=C/c3ccc(F)cc3)=NC21` (centres undefined) gave a GI50 (786-0 renal) of 628 nM, a TGI (786-0 renal) of 30100 nM and a GI50 (A498 renal) of 295 nM. The TGI (A498 renal) was 860 nM, the GI50 (A549 NSCLC) was 611 nM and the TGI (A549 NSCLC) was over 100000 nM. For the same molecule, the GI50 (ACHN renal) was 728 nM, the TGI (ACHN renal) was over 100000 nM and the GI50 (BT-549 breast) was 496 nM. The TGI (BT-549 breast) was 2870 nM, the GI50 (CAKI-1 renal) was 435 nM and the TGI (CAKI-1 renal) was over 100000 nM. The GI50 (CCRF-CEM leukemia) was 413 nM, the TGI (CCRF-CEM leukemia) was over 100000 nM and the GI50 (COLO 205 colon) was 308 nM. The TGI (COLO 205 colon) was 1100 nM, the GI50 (DU-145 prostate) was 498 nM and the TGI (DU-145 prostate) was over 100000 nM. The GI50 (EKVX NSCLC) was 695 nM, the TGI (EKVX NSCLC) was over 100000 nM and the GI50 (HCC-2998 colon) was 823 nM. For the same molecule, the TGI (HCC-2998 colon) was over 100000 nM, the GI50 (HCT-116 colon) was 404 nM and the TGI (HCT-116 colon) was over 33900 nM. For the same molecule, the GI50 (HCT-15 colon) was 429 nM, the TGI (HCT-15 colon) was over 100000 nM and the GI50 (HL-60(TB) leukemia) was 268 nM. The TGI (HL-60(TB) leukemia) was 927 nM, the GI50 (HOP-62 NSCLC) was 556 nM and the TGI (HOP-62 NSCLC) was over 100000 nM. The GI50 (HOP-92 NSCLC) was 1160 nM, the TGI (HOP-92 NSCLC) was over 23300 nM and the GI50 (HS 578T breast) was 363 nM. The GI50 (HT29 colon) was 354 nM, the TGI (HT29 colon) was 4460 nM and the GI50 (IGROV1 ovarian) was 765 nM. For the same molecule, the TGI (IGROV1 ovarian) was over 100000 nM, the GI50 (K-562 leukemia) was 361 nM and the TGI (K-562 leukemia) was over 100000 nM. It also gave a GI50 (KM12 colon) of 415 nM, a TGI (KM12 colon) of over 62200 nM and a GI50 (LOX IMVI melanoma) of 596 nM. The TGI (LOX IMVI melanoma) was over 100000 nM, the GI50 (M14 melanoma) was 296 nM and the TGI (M14 melanoma) was 14400 nM. The GI50 (MALME-3M melanoma) was 660 nM, the TGI (MALME-3M melanoma) was over 100000 nM and the GI50 (MCF7 breast) was 369 nM. For the same molecule, the TGI (MCF7 breast) was over 100000 nM, the GI50 (MDA-MB-231 breast) was 955 nM and the TGI (MDA-MB-231 breast) was over 100000 nM. The GI50 (MDA-MB-435) was 174 nM, the TGI (MDA-MB-435) was 408 nM and the GI50 (MOLT-4 leukemia) was 479 nM. It also gave a TGI (MOLT-4 leukemia) of over 100000 nM, a GI50 (NCI-H226 lung) of 942 nM and a TGI (NCI-H226 lung) of over 100000 nM. The GI50 (NCI-H23 lung) was 539 nM, the TGI (NCI-H23 lung) was over 100000 nM and the GI50 (NCI-H460 lung) was 362 nM. It also gave a GI50 (NCI-H522 lung) of 250 nM, a TGI (NCI-H522 lung) of 762 nM and a GI50 (NCI/ADR-RES ovarian) of 428 nM. For the same molecule, the TGI (NCI/ADR-RES ovarian) was over 100000 nM, the GI50 (OVCAR-3 ovarian) was 370 nM and the TGI (OVCAR-3 ovarian) was 2040 nM. The GI50 (OVCAR-4 ovarian) was 22400 nM, the TGI (OVCAR-4 ovarian) was over 100000 nM and the GI50 (OVCAR-5 ovarian) was 890 nM. The TGI (OVCAR-5 ovarian) was over 100000 nM, the GI50 (OVCAR-8 ovarian) was 495 nM and the TGI (OVCAR-8 ovarian) was over 24000 nM. The GI50 (PC-3 prostate) was 436 nM, the TGI (PC-3 prostate) was over 52300 nM and the GI50 (RPMI-8226 leukemia) was 373 nM. It also gave a TGI (RPMI-8226 leukemia) of over 100000 nM, a GI50 (SF-268 CNS) of 2620 nM and a TGI (SF-268 CNS) of over 100000 nM. The GI50 (SF-295 CNS) was 348 nM, the TGI (SF-295 CNS) was over 100000 nM and the GI50 (SF-539 CNS) was 321 nM. The TGI (SF-539 CNS) was 1430 nM, the GI50 (SK-MEL-2 melanoma) was 507 nM and the TGI (SK-MEL-2 melanoma) was over 100000 nM. For the same molecule, the GI50 (SK-MEL-28 melanoma) was over 30000 nM, the TGI (SK-MEL-28 melanoma) was over 100000 nM and the GI50 (SK-MEL-5 melanoma) was 601 nM. The TGI (SK-MEL-5 melanoma) was over 42200 nM, the GI50 (SK-OV-3 ovarian) was 662 nM and the TGI (SK-OV-3 ovarian) was over 100000 nM. The GI50 (SN12C renal) was 617 nM, the TGI (SN12C renal) was over 100000 nM and the GI50 (SNB-19 CNS) was 504 nM. The TGI (SNB-19 CNS) was over 100000 nM, the GI50 (SNB-75 CNS) was 252 nM and the GI50 (SR leukemia) was 221 nM. It also gave a TGI (SR leukemia) of over 100000 nM, a GI50 (SW-620 colon) of 374 nM and a TGI (SW-620 colon) of over 100000 nM. It also gave a GI50 (TK-10 renal) of 5200 nM, a TGI (TK-10 renal) of over 100000 nM and a GI50 (U251 CNS) of 406 nM. The TGI (U251 CNS) was over 74300 nM, the GI50 (UACC-257 melanoma) was 1260 nM and the TGI (UACC-257 melanoma) was over 100000 nM. It also gave a GI50 (UACC-62 melanoma) of 437 nM, a TGI (UACC-62 melanoma) of over 100000 nM and a GI50 (UO-31 renal) of 631 nM. For the same molecule, the TGI (UO-31 renal) was over 100000 nM.
